Tests used:
[1] = target: T1, TDO (A172 human glioblastoma cells) (Homo sapiens, UniProt P48775); experiment: A172 Kynurenine cell based assay; conditions: 500 μM L-tryptophan, 48 hours, kynurenine by Erhlich's reagent
T1 construct: This assay utilised cancer cells which expressed either TDO or IDO; endogenous in cells; host or cells: A172 human glioblastoma cells
Summary of the method: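 A172 glioblastoma cells (30,000/well) cultured at 37° C. in phenol red-free RPMI with 10% FCS, 2 mM L-glutamine and 500 μM L-tryptophan, with or without test compound. After 48 hours, kynurenine in the supernatant was read with Erhlich's reagent (5 min) as absorbance at 490 nm.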

[2] = target: T2, IDO (SKOV3 human ovarian adenocarcinoma cells, IFN-γ induced) (Homo sapiens, UniProt P14902); experiment: SKOV3 Kynurenine cell based assay; conditions: IDO induced by 500 ng/ml IFN-γ, 500 μM L-tryptophan, 48 hours
T2 construct: IDO expression was induced in the SKOV3 cells by the addition of 500 ng/ml IFN-γ; endogenous in cells; host or cells: SKOV3 human ovarian adenocarcinoma cells, induced with IFN-γ
Summary of the method: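 IFN-γ (500 ng/ml) induced IDO in SKOV3 cells, seeded at 40,000/well in phenol red-free RPMI with 10% FCS, 2 mM L-glutamine and 500 μM L-tryptophan. Cells were incubated with or without compound at 37° C for 48 h. Supernatant kynurenine was detected with Ehrlich's reagent.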

Recombinant human IDO = Recombinant human IDO (Homo sapiens, UniProt P14902); experiment: hIDO biochemical coupled assay; conditions: 45 μM L-tryptophan, coupled with kynurenine formamidase
Protocol: (§1) Exemplary compounds of the invention were prepared, and tested to determine their effect as TDO and/or IDO inhibitors. Two different assays were employed: 1. a cell-based assay for detecting the effect of test compounds on kynurenine production in two different cancer cell types. This assay utilised cancer cells which expressed either TDO or IDO and as such was used as a means of testing compound activity at these two enzymes in a cell-based context. 2. a TDO and IDO biochemical coupled assay which utilised recombinantly produced and purified TDO and IDO enzymes in combination with the enzyme formamidase. This coupled enzyme system allowed conversion of N-formylkynurenine produced by TDO or IDO activity to kynurenine which was then quantified by fluorescence following addition of Erhlich's Reagent The protocols for these are set out below.
Recombinant human IDO or TDO was incubated in 50 mM KPO4 (pH 7.0), 0.5 mM EGTA, 0.5 mM EDTA, 0.05% Triton™ X100, 20 mM ascorbate, 10 μM methylene blue, 500 U/ml catalase, 50 μg/ml KynB (kynurenine formamidase).

Recombinant human TDO = Recombinant human TDO (Homo sapiens, UniProt P48775); experiment: hTDO biochemical coupled assay; conditions: 330 μM L-tryptophan, coupled with kynurenine formamidase
Protocol: as §1
Recombinant human IDO or TDO was incubated in 50 mM KPO4 (pH 7.0), 0.5 mM EGTA, 0.5 mM EDTA, 0.05% Triton™ X100, 20 mM ascorbate, 10 μM methylene blue, 500 U/ml catalase, 50 μg/ml KynB (kynurenine formamidase). TDO assays were carried out in the presence of 330 μM L-tryptophan, while IDO assays had the addition of 45 μM L-tryptophan. After incubation for 17 minutes at room temperature the reactions were stopped by the addition of Erhlich's reagent and incubated at room temperature for 5 minutes before the fluorescence was read (Ex475, Em530).

T2 sequence (P14902 whole entry): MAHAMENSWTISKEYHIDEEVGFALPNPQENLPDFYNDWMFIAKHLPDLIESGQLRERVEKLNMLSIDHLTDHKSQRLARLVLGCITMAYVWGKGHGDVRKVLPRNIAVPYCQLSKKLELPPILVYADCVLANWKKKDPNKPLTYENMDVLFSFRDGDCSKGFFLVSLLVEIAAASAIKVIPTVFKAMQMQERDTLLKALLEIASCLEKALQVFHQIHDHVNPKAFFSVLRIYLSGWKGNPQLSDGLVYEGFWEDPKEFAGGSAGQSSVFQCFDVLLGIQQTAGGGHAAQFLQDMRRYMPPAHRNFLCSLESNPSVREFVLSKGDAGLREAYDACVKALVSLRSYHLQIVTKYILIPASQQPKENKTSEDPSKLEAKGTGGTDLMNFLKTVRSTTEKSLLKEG
Sequence of Recombinant human IDO (P14902 whole entry): as above
Sequence of Recombinant human TDO (P48775 whole entry): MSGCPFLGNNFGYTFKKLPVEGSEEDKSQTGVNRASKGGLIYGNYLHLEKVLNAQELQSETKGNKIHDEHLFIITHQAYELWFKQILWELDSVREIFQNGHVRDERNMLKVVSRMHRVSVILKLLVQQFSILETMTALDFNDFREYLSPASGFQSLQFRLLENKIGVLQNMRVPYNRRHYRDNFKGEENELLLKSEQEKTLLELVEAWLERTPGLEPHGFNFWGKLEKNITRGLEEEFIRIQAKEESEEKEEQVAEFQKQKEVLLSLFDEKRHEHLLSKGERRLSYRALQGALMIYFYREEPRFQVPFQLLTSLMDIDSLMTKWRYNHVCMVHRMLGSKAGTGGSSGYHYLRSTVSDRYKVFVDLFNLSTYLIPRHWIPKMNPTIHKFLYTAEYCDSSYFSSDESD
T1 sequence (P48775 whole entry): as above

Row | A172 Kynurenine cell based assay pIC50 [1] | SKOV3 Kynurenine cell based assay pIC50 [2] | hIDO biocehmical assay pIC50 (Recombinant human IDO) | hTDO biochemical assay pIC50 (Recombinant human TDO) | Compound
1 | + (+ = pIC50 4.00-4.99) | +− (+− = pIC50 <4.00) | +− (+− = pIC50 <4.00) | +− (+− = pIC50 <4.00) | Cc1ccc(S(=O)(=O)N2CCC(c3c[nH]c4ccccc34)CC2)c(C)c1 [Compound 14]
2 | ++ (++ = pIC50 5.00-5.99) | + (+ = pIC50 4.00-4.99) | +− (+− = pIC50 <4.00) | ++ (++ = pIC50 5.00-5.99) | CS(=O)(=O)N1CC=C(c2c[nH]c3cc(Cl)ccc23)CC1 [Compound 76]
3 | +− (+− = pIC50 <4.00) | ++ (++ = pIC50 5.00-5.99) | +− (+− = pIC50 <4.00) | +− (+− = pIC50 <4.00) | O=S(=O)(c1cccs1)N1CC=C(c2c[nH]c3ncccc23)CC1 [Compound 13]
4 | +++ (+++ = pIC50 ≥6.00) | +− (+− = pIC50 <4.00) | +− (+− = pIC50 <4.00) | +++ (+++ = pIC50 ≥6.00) | NS(=O)(=O)N1CC=C(c2c[nH]c3cc(F)ccc23)CC1 [Compound 164]
5 | ++ (++ = pIC50 5.00-5.99) | +− (+− = pIC50 <4.00) | +− (+− = pIC50 <4.00) | ++ (++ = pIC50 5.00-5.99) | CS(=O)(=O)N1CCC(c2c[nH]c3ccccc23)CC1 [Compound 3]
6 | +− (+− = pIC50 <4.00) | +− (+− = pIC50 <4.00) | +− (+− = pIC50 <4.00) | + (+ = pIC50 4.00-4.99) | COc1ccc2[nH]cc(C3=CCN(C(C)=O)CC3)c2c1 [Compound 70]
7 | +++ (+++ = pIC50 ≥6.00) | + (+ = pIC50 4.00-4.99) | +− (+− = pIC50 <4.00) | ++ (++ = pIC50 5.00-5.99) | CS(=O)(=O)N1CC=C(c2c[nH]c3cc(F)ccc23)CC1 [Compound 103]
8 | ++ (++ = pIC50 5.00-5.99) | + (+ = pIC50 4.00-4.99) | +− (+− = pIC50 <4.00) | ++ (++ = pIC50 5.00-5.99) | CS(=O)(=O)N1CC=C(c2c[nH]c3ccc(F)cc23)CC1 [Compound 90]
9 | + (+ = pIC50 4.00-4.99) | + (+ = pIC50 4.00-4.99) | +− (+− = pIC50 <4.00) | +− (+− = pIC50 <4.00) | O=C(c1cccs1)N1CCC(c2c[nH]c3ccccc23)CC1 [Compound 11]
10 | + (+ = pIC50 4.00-4.99) | + (+ = pIC50 4.00-4.99) | +− (+− = pIC50 <4.00) | +− (+− = pIC50 <4.00) | O=S(=O)(c1cccc(OC(F)(F)F)c1)N1CCC(c2c[nH]c3ccccc23)CC1 [Compound 57]
11 | +++ (+++ = pIC50 ≥6.00) | + (+ = pIC50 4.00-4.99) | +− (+− = pIC50 <4.00) | ++ (++ = pIC50 5.00-5.99) | CCCS(=O)(=O)N1CC=C(c2c[nH]c3cc(F)ccc23)CC1 [Compound 7]
12 | + (+ = pIC50 4.00-4.99) | +− (+− = pIC50 <4.00) | +− (+− = pIC50 <4.00) | +− (+− = pIC50 <4.00) | CS(=O)(=O)N1CCC(c2c[nH]c3cccc(F)c23)CC1 [Compound 95]
13 | +− (+− = pIC50 <4.00) | +− (+− = pIC50 <4.00) | +− (+− = pIC50 <4.00) | + (+ = pIC50 4.00-4.99) | CC(=O)N1CC=C(c2n[nH]c3ccccc23)CC1 [Compound 102]
14 | +− (+− = pIC50 <4.00) | + (+ = pIC50 4.00-4.99) | +− (+− = pIC50 <4.00) | + (+ = pIC50 4.00-4.99) | CC(=O)N1CC=C(c2c(C)[nH]c3ccccc23)CC1 [Compound 104]

Further lines, the compound ahead of its results:

Row | Compound | A172 Kynurenine cell based assay pIC50 [1] | SKOV3 Kynurenine cell based assay pIC50 [2] | hIDO biocehmical assay pIC50 (Recombinant human IDO) | hTDO biochemical assay pIC50 (Recombinant human TDO)
15 | CCCS(=O)(=O)N1CCC(c2c[nH]c3ccccc23)CC1 [Compound 69] | ++ (++ = pIC50 5.00-5.99) | +− (+− = pIC50 <4.00) | +− (+− = pIC50 <4.00) | + (+ = pIC50 4.00-4.99)
16 | Cc1cc(C(=O)N2CCC(c3c(C)[nH]c4ccccc34)CC2)no1 [Compound 8] | +− (+− = pIC50 <4.00) | + (+ = pIC50 4.00-4.99) | +− (+− = pIC50 <4.00) | +− (+− = pIC50 <4.00)
17 | CC(C)OCC(=O)N1CC=C(c2c[nH]c3cc(F)ccc23)CC1 [Compound 163] | +++ (+++ = pIC50 ≥6.00) | + (+ = pIC50 4.00-4.99) | +− (+− = pIC50 <4.00) | ++ (++ = pIC50 5.00-5.99)
18 | Cc1cccc2c(C3CCN(C(=O)c4ccc(F)c(C(F)(F)F)c4)CC3)c[nH]c12 [Compound 54] | + (+ = pIC50 4.00-4.99) | + (+ = pIC50 4.00-4.99) | +− (+− = pIC50 <4.00) | +− (+− = pIC50 <4.00)
19 | CCCCS(=O)(=O)N1CC=C(c2c[nH]c3cc(F)ccc23)CC1 [Compound 18] | ++ (++ = pIC50 5.00-5.99) | + (+ = pIC50 4.00-4.99) | +− (+− = pIC50 <4.00) | + (+ = pIC50 4.00-4.99)
20 | CC(=O)N1CC=C(c2c[nH]c3ccc(F)cc23)CC1 [Compound 86] | ++ (++ = pIC50 5.00-5.99) | + (+ = pIC50 4.00-4.99) | +− (+− = pIC50 <4.00) | +++ (+++ = pIC50 ≥6.00)
21 | O=C(Cc1cccs1)N1CCC(c2c[nH]c3ccccc23)CC1 [Compound 19] | +− (+− = pIC50 <4.00) | + (+ = pIC50 4.00-4.99) | +− (+− = pIC50 <4.00) | +− (+− = pIC50 <4.00)
22 | CC(=O)N1CCC(C2CNc3cc(F)ccc32)CC1 (stereo not drawn) [Compound 179] | + (+ = pIC50 4.00-4.99) | +− (+− = pIC50 <4.00) | +− (+− = pIC50 <4.00) | +− (+− = pIC50 <4.00)
23 | NC(=O)N1CCC(c2c[nH]c3ccccc23)CC1 [Compound 16] | + (+ = pIC50 4.00-4.99) | +− (+− = pIC50 <4.00) | +− (+− = pIC50 <4.00) | +− (+− = pIC50 <4.00)
24 | Cc1ccc2[nH]cc(C3CCN(S(C)(=O)=O)CC3)c2c1 [Compound 85] | ++ (++ = pIC50 5.00-5.99) | ++ (++ = pIC50 5.00-5.99) | +− (+− = pIC50 <4.00) | +− (+− = pIC50 <4.00)
